Test results reported in PubChem BioAssay (NCI).
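GI50 marks 50% less growth. TGI: total growth inhibition.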

Experiments:
Assay in all cases: NCI anticancer screen, dose series, 384-well format
OVCAR-5 ovarian = test system: OVCAR-5 ovarian
SK-MEL-5 melanoma = test system: SK-MEL-5 melanoma
SNB-19 CNS = test system: SNB-19 CNS
TK-10 renal = test system: TK-10 renal
HOP-92 NSCLC = test system: HOP-92 NSCLC
NCI-H322M lung = test system: NCI-H322M lung
MCF7 breast = test system: MCF7 breast
MDA-MB-435 melanoma = test system: MDA-MB-435 melanoma
K-562 leukemia = test system: K-562 leukemia
SF-539 CNS = test system: SF-539 CNS
NCI-H23 lung = test system: NCI-H23 lung
HCC-2998 colon = test system: HCC-2998 colon
IGROV1 ovarian = test system: IGROV1 ovarian
HOP-62 NSCLC = test system: HOP-62 NSCLC
M14 melanoma = test system: M14 melanoma
HS 578T breast = test system: HS 578T breast
OVCAR-4 ovarian = test system: OVCAR-4 ovarian
RPMI-8226 leukemia = test system: RPMI-8226 leukemia
NCI-H226 lung = test system: NCI-H226 lung
U251 glioblastoma = test system: U251 glioblastoma
NCI-H460 NSCLC = test system: NCI-H460 NSCLC
HL-60(TB) leukemia = test system: HL-60(TB) leukemia
OVCAR-3 ovarian = test system: OVCAR-3 ovarian
MOLT-4 leukemia = test system: MOLT-4 leukemia
COLO 205 colon = test system: COLO 205 colon
OVCAR-8 ovarian = test system: OVCAR-8 ovarian
HT29 colon = test system: HT29 colon
SNB-75 CNS = test system: SNB-75 CNS
KM12 colon = test system: KM12 colon
SF-268 CNS = test system: SF-268 CNS
LOX IMVI melanoma = test system: LOX IMVI melanoma
HCT-15 colon = test system: HCT-15 colon
MDA-MB-231 breast = test system: MDA-MB-231 breast
SK-MEL-28 melanoma = test system: SK-MEL-28 melanoma
HCT-116 colon = test system: HCT-116 colon
CCRF-CEM leukemia = test system: CCRF-CEM leukemia
RXF 393 renal = test system: RXF 393 renal
A549 NSCLC = test system: A549 NSCLC
A498 renal = test system: A498 renal
SK-OV-3 ovarian = test system: SK-OV-3 ovarian
SW-620 colon = test system: SW-620 colon
SN12C renal = test system: SN12C renal
786-0 renal = test system: 786-0 renal
EKVX NSCLC = test system: EKVX NSCLC
SF-295 CNS = test system: SF-295 CNS
NCI/ADR-RES ovarian = test system: NCI/ADR-RES ovarian
NCI-H522 lung = test system: NCI-H522 lung
CAKI-1 renal = test system: CAKI-1 renal
UACC-257 melanoma = test system: UACC-257 melanoma
DU-145 prostate = test system: DU-145 prostate
BT-549 breast = test system: BT-549 breast
MDA-MB-468 breast = test system: MDA-MB-468 breast
ACHN renal = test system: ACHN renal
SR leukemia = test system: SR leukemia
UO-31 renal = test system: UO-31 renal
T-47D breast = test system: T-47D breast
PC-3 prostate = test system: PC-3 prostate
MALME-3M melanoma = test system: MALME-3M melanoma

SMILES: CN1CCN(c2ccc3nc(-c4c(N)c5c(F)cccc5[nH]c4=O)[nH]c3c2)CC1
- GI50 (OVCAR-5 ovarian): 1400 nM
- TGI (OVCAR-5 ovarian): 3580 nM
- GI50 (SK-MEL-5 melanoma): 1080 nM
- TGI (SK-MEL-5 melanoma): 2280 nM
- GI50 (SNB-19 CNS): 1480 nM
- TGI (SNB-19 CNS): 3120 nM
- GI50 (TK-10 renal): 1250 nM
- TGI (TK-10 renal): 3220 nM
- GI50 (HOP-92 NSCLC): 645 nM
- TGI (HOP-92 NSCLC): 2000 nM
- GI50 (NCI-H322M lung): 1150 nM
- TGI (NCI-H322M lung): 2900 nM
- GI50 (MCF7 breast): 1040 nM
- TGI (MCF7 breast): 2230 nM
- GI50 (MDA-MB-435 melanoma): 1280 nM
- TGI (MDA-MB-435 melanoma): 2560 nM
- GI50 (K-562 leukemia): 441 nM
- TGI (K-562 leukemia): 1540 nM
- GI50 (SF-539 CNS): 293 nM
- TGI (SF-539 CNS): 1160 nM
- GI50 (NCI-H23 lung): 1150 nM
- TGI (NCI-H23 lung): 2440 nM
- GI50 (HCC-2998 colon): 744 nM
- TGI (HCC-2998 colon): 2020 nM
- GI50 (IGROV1 ovarian): 276 nM
- TGI (IGROV1 ovarian): 1350 nM
- GI50 (HOP-62 NSCLC): 1080 nM
- TGI (HOP-62 NSCLC): 2320 nM
- GI50 (M14 melanoma): 340 nM
- TGI (M14 melanoma): 1510 nM
- GI50 (HS 578T breast): 358 nM
- TGI (HS 578T breast): 1500 nM
- GI50 (OVCAR-4 ovarian): 1530 nM
- TGI (OVCAR-4 ovarian): 2960 nM
- GI50 (RPMI-8226 leukemia): 329 nM
- TGI (RPMI-8226 leukemia): 1240 nM
- GI50 (NCI-H226 lung): 545 nM
- TGI (NCI-H226 lung): 1980 nM
- GI50 (U251 glioblastoma): 714 nM
- TGI (U251 glioblastoma): 2010 nM
- GI50 (NCI-H460 NSCLC): 390 nM
- TGI (NCI-H460 NSCLC): 1430 nM
- GI50 (HL-60(TB) leukemia): 357 nM
- TGI (HL-60(TB) leukemia): 1290 nM
- GI50 (OVCAR-3 ovarian): 1060 nM
- TGI (OVCAR-3 ovarian): 2260 nM
- GI50 (MOLT-4 leukemia): 171 nM
- TGI (MOLT-4 leukemia): 310 nM
- GI50 (COLO 205 colon): 1010 nM
- TGI (COLO 205 colon): 2170 nM
- GI50 (OVCAR-8 ovarian): 1240 nM
- TGI (OVCAR-8 ovarian): 2530 nM
- GI50 (HT29 colon): 1240 nM
- TGI (HT29 colon): 2550 nM
- GI50 (SNB-75 CNS): 493 nM
- TGI (SNB-75 CNS): 1800 nM
- GI50 (KM12 colon): 33.1 nM
- TGI (KM12 colon): 1450 nM
- GI50 (SF-268 CNS): 1250 nM
- TGI (SF-268 CNS): 2830 nM
- GI50 (LOX IMVI melanoma): 938 nM
- TGI (LOX IMVI melanoma): 2130 nM
- GI50 (HCT-15 colon): 417 nM
- TGI (HCT-15 colon): 1630 nM
- GI50 (MDA-MB-231 breast): 1840 nM
- TGI (MDA-MB-231 breast): 4050 nM
- GI50 (SK-MEL-28 melanoma): 1780 nM
- TGI (SK-MEL-28 melanoma): 3170 nM
- GI50 (HCT-116 colon): 624 nM
- TGI (HCT-116 colon): 1900 nM
- GI50 (CCRF-CEM leukemia): 369 nM
- TGI (CCRF-CEM leukemia): 1080 nM
- GI50 (RXF 393 renal): 340 nM
- TGI (RXF 393 renal): 1370 nM
- GI50 (A549 NSCLC): 720 nM
- TGI (A549 NSCLC): 1990 nM
- GI50 (A498 renal): 472 nM
- TGI (A498 renal): 1770 nM
- GI50 (SK-OV-3 ovarian): 325 nM
- TGI (SK-OV-3 ovarian): 1470 nM
- GI50 (SW-620 colon): 476 nM
- TGI (SW-620 colon): 1640 nM
- GI50 (SN12C renal): 442 nM
- TGI (SN12C renal): 1590 nM
- GI50 ([…]-0 renal): 1070 nM
- TGI (786-0 renal): 2300 nM
- GI50 (EKVX NSCLC): 1040 nM
- TGI (EKVX NSCLC): 2390 nM
- GI50 (SF-295 CNS): 1330 nM
- TGI (SF-295 CNS): 2610 nM
- GI50 (NCI/ADR-RES ovarian): 1610 nM
- TGI (NCI/ADR-RES ovarian): 3060 nM
- GI50 (NCI-H522 lung): 990 nM
- TGI (NCI-H522 lung): 2160 nM
- GI50 (CAKI-1 renal): 265 nM
- TGI (CAKI-1 renal): 1320 nM
- GI50 (UACC-257 melanoma): 1150 nM
- TGI (UACC-257 melanoma): 2380 nM
- GI50 (DU-145 prostate): 779 nM
- TGI (DU-145 prostate): 2100 nM
- GI50 (BT-549 breast): 451 nM
- TGI (BT-549 breast): 1700 nM
- GI50 (MDA-MB-468 breast): 1080 nM
- TGI (MDA-MB-468 breast): 2320 nM
- GI50 (ACHN renal): 344 nM
- TGI (ACHN renal): 1500 nM
- GI50 (SR leukemia): 170 nM
- TGI (SR leukemia): 337 nM
- GI50 (UO-31 renal): 397 nM
- TGI (UO-31 renal): 1600 nM
- GI50 (T-47D breast): 1700 nM
- TGI (T-47D breast): 3100 nM
- GI50 (PC-3 prostate): 1080 nM
- TGI (PC-3 prostate): 3830 nM
- GI50 (MALME-3M melanoma): 495 nM
- TGI (MALME-3M melanoma): 1670 nM
